Data set [1] concerns the target T1, Serine/threonine-protein kinase ATR (Homo sapiens, UniProt Q13535). Briefly: In vivo inhibition of ATR in human LoVo cells xenografted in NOD/SCID mouse assessed as inhibition of Chk1 phosphorylation at 50 to 100 mg/kg, po administered twice a day for 30 days by Western blot analysis. As to conditions: dose 50-100 mg/kg, time 30.0 day. On the technique in general: Xenograft models place foreign cells or tissue in a host animal.

In data set [2] the target is T1, Serine/threonine-protein kinase ATR. Description: Inhibition of ATR signalling in ATM-deficient human LoVo cells assessed as inhibition of ATR phosphorylation incubated for 1 hr followed by hydroxyurea addition measured after 4 hrs by Western blot analysis. Format: cell-based. As to conditions: dose <= 3.0 µM, time 5.0 hrs, DDE = dose-dependent effect.
Data set [3] in a line: Toxicity in NOD/SCID mouse xenografted with human LoVo cells assessed as damage in spleen at 50 to 100 mg/kg, po administered bid for 30 days measured after 2 hrs post last dose by H and E staining method. It counts as organism-based. As to conditions: in vivo, 720 h, dose 50-100 mg/kg, time 30 day.
In data set [4] the test system is HT-29. Description: Induction of apoptosis in human HT-29 cells assessed as early apoptotic cells at 3 uM measured after 48 hrs in presence of AZD1390 by Annexin V-FITC/Propidium iodide staining based flow cytometry analysis (reference value: 3.81%). Format: functional. For orientation: Flow cytometry measures light scatter and fluorescence of single cells or particles in a stream.

Data set [5] has as its system LoVo. Briefly: Induction of apoptosis in human LoVo cells deficient in ATM assessed as early apoptotic cells at 3 uM measured after 24 hrs by Annexin V-FITC/Propidium iodide staining based flow cytometry analysis (reference value: 4.20%). Format: functional.
Data set [6] deals with LoVo. Briefly: Antimigratory activity in human LoVo cells assessed as suppression of cell migration measured at up to 1 uM by wound healing assay. As to conditions: time <= 48.0 hrs, TDE = time-dependent effect. Format: functional, cell-based.
Data set [7] deals with LoVo. Briefly: Inhibition of colony formation in human LoVo cells assessed as inhibition of cell proliferation incubated for 24 hrs followed by culture medium replenishment with drug-free medium for every 72 hrs and measured after 14 days by crystal violet staining method. Format: functional, cell-based. The note with it: dose 0.03-3 µM, DDE = dose-dependent effect.
Data set [8] relates to HT-29. Briefly: Induction of apoptosis in human HT-29 cells assessed as necrotic cells at 0.3 uM measured after 48 hrs by Annexin V-FITC/Propidium iodide staining based flow cytometry analysis (reference value: 0.73%). It counts as functional.
Data set [9] concerns HT-29. Description: Induction of apoptosis in human HT-29 cells assessed as viable cells at 3 uM measured after 48 hrs in presence of AZD1390 by Annexin V-FITC/Propidium iodide staining based flow cytometry analysis (reference value: 95.33%). Format: functional. As to conditions: read-out: Activity.
The test system of data set [10] is NCI-H23. Briefly: Antiproliferative activity against ATM-deficient human NCI-H23 cells assessed as reduction in cell viability incubated for 72 hrs by MTT assay. As to conditions: dose 0.001-100 µM, DDE = dose-dependent effect. Format: functional, cell-based. (In general: Formazan colour is commonly taken as a measure of viable cells.)
Data set [11] relates to HT-29. Description: Induction of apoptosis in human HT-29 cells assessed as late apoptotic cells at 3 uM measured after 48 hrs in presence of AZD1390 by Annexin V-FITC/Propidium iodide staining based flow cytometry analysis (reference value: 0.63%). Format: functional.
Data set [12] has as its system LoVo. Briefly: Induction of apoptosis in human LoVo cells deficient in ATM assessed as necrotic cells at 1 uM measured after 24 hrs by Annexin V-FITC/Propidium iodide staining based flow cytometry analysis (reference value: 0.84%). Format: functional.
The test system of data set [13] is HT-29. Briefly: Induction of apoptosis in human HT-29 cells assessed as early apoptotic cells at 0.3 uM measured after 48 hrs in presence of AZD1390 by Annexin V-FITC/Propidium iodide staining based flow cytometry analysis (reference value: 3.81%). It counts as functional.
Data set [14] concerns OVCAR-3. Briefly: Antiproliferative activity against ATM-deficient human OVCAR-3 cells assessed as reduction in cell viability incubated for 72 hrs by MTT assay. It counts as functional, cell-based. As to conditions: dose 0.001-100 µM, DDE = dose-dependent effect.
Data set [15] concerns HT-29. Briefly: Induction of apoptosis in human HT-29 cells assessed as necrotic cells at 1 uM measured after 48 hrs in presence of AZD1390 by Annexin V-FITC/Propidium iodide staining based flow cytometry analysis (reference value: 0.23%). It counts as functional.
The subject of data set [16] is LoVo. Briefly: Induction of apoptosis in human LoVo cells deficient in ATM assessed as viable cells at 3 uM measured after 24 hrs by Annexin V-FITC/Propidium iodide staining based flow cytometry analysis (reference value: 91.64%). It counts as functional. As to conditions: read-out: Activity.
The test system of data set [17] is LoVo. Description: Induction of apoptosis in human LoVo cells deficient in ATM assessed as necrotic cells at 0.3 uM measured after 24 hrs by Annexin V-FITC/Propidium iodide staining based flow cytometry analysis (reference value: 0.84%). It counts as functional.
Data set [18] can be described thus: Toxicity in NOD/SCID mouse xenografted with human LoVo cells assessed as damage in lung at 50 to 100 mg/kg, po administered bid for 30 days measured after 2 hrs post last dose by H and E staining method. It counts as organism-based. The note with it: in vivo, 720 h, dose 50-100 mg/kg, time 30 day.

The source made the active and inactive calls. The calls are words filed in the database; no cut-off is given here.

T1 sequence (Q13535 whole entry, looked up): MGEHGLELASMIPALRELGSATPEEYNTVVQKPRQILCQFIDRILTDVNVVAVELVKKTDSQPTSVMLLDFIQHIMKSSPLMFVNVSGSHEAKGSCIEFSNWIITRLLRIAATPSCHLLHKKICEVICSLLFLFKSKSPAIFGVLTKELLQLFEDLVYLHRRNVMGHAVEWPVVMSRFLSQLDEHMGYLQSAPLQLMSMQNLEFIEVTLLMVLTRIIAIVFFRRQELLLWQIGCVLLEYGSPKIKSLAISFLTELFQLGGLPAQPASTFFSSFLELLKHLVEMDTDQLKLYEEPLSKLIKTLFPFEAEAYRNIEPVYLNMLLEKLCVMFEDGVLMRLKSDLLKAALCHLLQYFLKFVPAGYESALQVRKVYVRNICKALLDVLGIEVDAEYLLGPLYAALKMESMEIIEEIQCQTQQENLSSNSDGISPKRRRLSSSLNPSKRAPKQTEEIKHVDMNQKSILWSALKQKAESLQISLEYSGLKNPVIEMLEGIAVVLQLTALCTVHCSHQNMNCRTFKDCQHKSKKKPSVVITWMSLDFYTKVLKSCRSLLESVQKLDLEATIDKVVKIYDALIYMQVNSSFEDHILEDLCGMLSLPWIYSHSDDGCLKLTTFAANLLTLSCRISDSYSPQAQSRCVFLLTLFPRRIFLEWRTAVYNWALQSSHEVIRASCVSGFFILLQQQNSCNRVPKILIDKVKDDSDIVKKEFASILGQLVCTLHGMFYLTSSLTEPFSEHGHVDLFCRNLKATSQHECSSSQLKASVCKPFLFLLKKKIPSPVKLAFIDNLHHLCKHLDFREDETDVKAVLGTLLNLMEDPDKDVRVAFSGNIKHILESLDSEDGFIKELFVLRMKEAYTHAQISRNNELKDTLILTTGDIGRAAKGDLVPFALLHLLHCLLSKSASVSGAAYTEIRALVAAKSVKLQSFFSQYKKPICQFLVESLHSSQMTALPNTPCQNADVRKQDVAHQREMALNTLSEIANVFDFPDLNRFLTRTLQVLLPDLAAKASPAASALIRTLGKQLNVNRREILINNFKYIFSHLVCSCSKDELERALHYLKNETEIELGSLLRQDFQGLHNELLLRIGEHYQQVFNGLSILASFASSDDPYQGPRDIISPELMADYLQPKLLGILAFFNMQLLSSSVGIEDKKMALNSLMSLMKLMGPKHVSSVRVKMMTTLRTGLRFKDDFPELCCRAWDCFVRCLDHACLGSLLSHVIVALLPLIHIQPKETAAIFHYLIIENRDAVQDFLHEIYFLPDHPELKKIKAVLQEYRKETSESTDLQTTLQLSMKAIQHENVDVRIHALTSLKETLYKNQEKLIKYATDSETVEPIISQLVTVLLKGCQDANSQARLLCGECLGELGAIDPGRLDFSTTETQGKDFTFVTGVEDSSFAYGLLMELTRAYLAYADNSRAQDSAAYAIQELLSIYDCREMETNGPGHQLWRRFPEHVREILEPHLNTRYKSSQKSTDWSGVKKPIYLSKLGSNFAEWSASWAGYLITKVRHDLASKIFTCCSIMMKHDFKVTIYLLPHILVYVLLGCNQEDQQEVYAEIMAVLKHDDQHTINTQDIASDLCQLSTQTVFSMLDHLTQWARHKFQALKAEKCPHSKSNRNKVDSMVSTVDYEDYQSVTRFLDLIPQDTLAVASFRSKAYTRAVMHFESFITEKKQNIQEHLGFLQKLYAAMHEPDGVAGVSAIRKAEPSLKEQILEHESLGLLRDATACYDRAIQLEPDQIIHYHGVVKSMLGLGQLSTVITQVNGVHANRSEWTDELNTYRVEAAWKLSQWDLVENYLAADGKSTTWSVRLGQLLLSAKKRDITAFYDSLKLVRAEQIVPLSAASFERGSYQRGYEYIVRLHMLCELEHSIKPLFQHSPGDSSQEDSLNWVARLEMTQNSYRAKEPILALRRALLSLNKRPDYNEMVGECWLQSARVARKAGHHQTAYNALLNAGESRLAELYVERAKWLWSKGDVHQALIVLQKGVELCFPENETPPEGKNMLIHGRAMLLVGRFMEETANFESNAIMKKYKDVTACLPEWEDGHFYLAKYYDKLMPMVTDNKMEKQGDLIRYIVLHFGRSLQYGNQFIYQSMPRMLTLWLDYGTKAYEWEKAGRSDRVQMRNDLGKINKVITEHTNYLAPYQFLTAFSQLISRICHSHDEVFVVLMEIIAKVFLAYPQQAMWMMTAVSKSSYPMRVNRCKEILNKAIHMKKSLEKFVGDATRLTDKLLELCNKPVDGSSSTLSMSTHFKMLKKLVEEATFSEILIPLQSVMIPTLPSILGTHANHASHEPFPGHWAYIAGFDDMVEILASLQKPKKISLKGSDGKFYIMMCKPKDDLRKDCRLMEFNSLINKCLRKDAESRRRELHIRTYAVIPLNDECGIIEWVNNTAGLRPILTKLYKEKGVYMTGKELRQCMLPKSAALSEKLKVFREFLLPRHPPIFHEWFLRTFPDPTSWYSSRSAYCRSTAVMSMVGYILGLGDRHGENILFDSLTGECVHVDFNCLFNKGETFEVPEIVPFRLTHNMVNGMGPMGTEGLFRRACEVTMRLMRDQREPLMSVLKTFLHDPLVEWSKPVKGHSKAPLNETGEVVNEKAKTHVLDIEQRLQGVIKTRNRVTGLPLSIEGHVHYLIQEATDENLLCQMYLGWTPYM

For `C[C@@H]1COCCN1c1nc(-c2cccc3[nH]ccc23)nc2ccc(-c3ccnn3C)cc12`, the outcome in data set [1] was Active. Further, the inhibition entry in data set [2] and in [7] was “Dde” each time. Also, the Activity entry was “Non-Toxic” in data set [3]; 15.88% in data set [4]; 27.07% in [5]; “Tde” in data set [6]; 1.65% in data set [8]; “Dde” in data set [10]. Also, the Activity was 20.78% in data set [11]; 2.39% in data set [12]; 7.23% in [13]; “Dde” in [14]; 2.1% in [15]; 2.71% in data set [17]. In data set [18], the Activity entry was “Non-Toxic”. Besides, the viability at 3 µM is 58% in data set [9] and 41.2% in [16].

(Values after ChEMBL document CHEMBL5154749 (Eur J Med Chem, 2022).)
